Consider one compound from patent publication US20230044304A1, “Nitric oxide generation, dilution, analysis, and topical application compositions, systems, apparatus and methods” (SYK Technologies LLC, priority 2010, published 2023).

Entries after “also recorded” stand apart in the source; their conditions may differ.

The test system of test [1] is bacteria on skin of hands. The experiment in a line: Hand exposed to nitric oxide gas in a bag versus DIAL antibacterial soap, zone dilution plating. Format: in vivo, human. The text has this:
An experiment 46 used to determine the anti-microbial effectiveness of nitric oxide is illustrated in FIG. 72. In the experiment, five volunteers were selected 48. From a first hand of each volunteer, a technician using sterile gloves collected 50 a sample. This was accomplished by rubbing the back of the volunteer's hand with a sterile cotton collection swab for ten seconds. The swab was then applied 52 to a nutrient agar petri dish using the five corner or zone dilution method.
The five corner or zone dilution method involves mechanically diluting bacteria on a streak (blood agar) plate by sequentially spreading the bacteria across the plate in each of five zones. As the concentration of bacteria increases so do the number of zones containing bacteria. Bacteria on agar plate become visible as distinct circular colonies. Each colony represents an individual cell which has divided repeatedly to form a patch. The number of bacteria can be estimated by counting the number of patches or how far the bacteria is diluted by streaking it on the agar plate through the five zones.
After the sample was collected 50, the first hand was cleaned 54 using nitric oxide. This was done by placing the hand of the volunteer into a one-gallon plastic freezer bag. The bag was then inflated with nitric oxide through tubing attached to a portable nitric oxide generator. […]

The test system of test [2] is bacteria on a surface, such as a person's skin. As to the kind of experiment: Nitric oxide dose required to kill bacteria on a surface.

In the case of `[N]=O` [nitric oxide], in test [1] (1,000 ppm nitric oxide for fifteen minutes versus DIAL antibacterial soap for 2 minutes, five volunteers), the “bacterial colony count compared with washing with antibacterial soap” value was “superior to soaps; also recorded: lower bacterial colony count”. In test [1] (experiments by applicant on healthy skin), the “colony counts of bacteria exposed to nitric oxide” value is listed as “substantial reductions in colony counts”. Besides, the “dose required to kill bacteria on a surface” value in test [2] is at least 320 ppm.
